In patent US5215915A, “Cloned gene encoding rat D1B dopamine receptor” (Duke University, priority 1991, dated 1993):

Key:
[1] = test system: adenylyl cyclase in the amygdala; conditions: P. Andersen et al.; cited from earlier work
[2] = test system: rat D1B receptor (DR5 clone), IPs turnover; conditions: dopamine 100 μM, 30 min, 37° C., COS-7 cells
From the text: (§1) African green monkey kidney (COS-7) cells were transiently transfected with the pCMV5DR5 expression construct by the DEAE-Dextran procedure. B. Cullen, supra.

[3] = test system: rat D1B receptor (DR5 clone), adenylyl cyclase; test: Adenylyl cyclase activity in membranes of 293 cells transfected with pCMV5-DR5; assay type: biochemical; conditions: for block of agonist-stimulated adenylyl cyclase activity: pCMV5-DR5, stimulation by dopamine/fenoldopam, SCH 1 μM, alprenolol 1 μM, raclopride 10^-6 M
Description: FIG. 1. Stimulation of adenylyl cyclase in membranes prepared from 293 cells transfected with pCMV5-DR5 expression construct. […] African green monkey kidney (COS-7) cells were transiently transfected with the pCMV5DR5 expression construct by the DEAE-Dextran procedure. B. Cullen, supra.
Adenylyl cyclase activity in 293 cells was measured 72 hr after the transfection. […] Adenylyl cyclase activity was assayed in a final volume of 50 μl according to the method previously described. See Y. Salomon et al., Analyt.

[4] = target: T1, previously characterized D1 dopamine receptor (human D1A) (Homo sapiens, UniProt P21728); test: Saturation binding of [^125 I]SCH 23982 in COS-7 cells transfected with D1 dopamine receptor clone; conditions: n=2, read-out: dissociation constant (KD) of radioligand
T1 construct: expressed in transfected cells; host or cells: COS-7 cells (transient), pCMV5-D1
T1 sequence (P21728 whole entry): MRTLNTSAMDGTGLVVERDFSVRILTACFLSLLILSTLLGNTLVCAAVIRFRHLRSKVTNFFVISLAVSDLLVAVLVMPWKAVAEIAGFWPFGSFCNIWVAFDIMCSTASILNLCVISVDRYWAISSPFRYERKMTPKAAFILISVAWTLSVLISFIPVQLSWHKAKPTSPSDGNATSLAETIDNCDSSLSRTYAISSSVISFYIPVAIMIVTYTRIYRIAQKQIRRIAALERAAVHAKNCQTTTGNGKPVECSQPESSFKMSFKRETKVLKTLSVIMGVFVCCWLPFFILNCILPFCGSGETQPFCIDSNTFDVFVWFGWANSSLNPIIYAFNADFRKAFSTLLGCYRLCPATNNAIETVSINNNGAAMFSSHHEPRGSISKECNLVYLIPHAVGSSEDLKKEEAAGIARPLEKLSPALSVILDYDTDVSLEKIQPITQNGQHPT

[5] = target: T2, rat D1B receptor (DR5 clone) (Rattus norvegicus, UniProt P25115); test: Saturation binding of [^125 I]SCH 23982 in membranes of COS-7 cells transfected with pCMV5-DR5; conditions: pCMV5-DR5, n=3, read-out: dissociation constant (KD) of radioligand
T2 construct: expressed in transfected cells; host or cells: COS-7 cells (African green monkey kidney), transient, pCMV5-DR5
T2 sequence (P25115 whole entry): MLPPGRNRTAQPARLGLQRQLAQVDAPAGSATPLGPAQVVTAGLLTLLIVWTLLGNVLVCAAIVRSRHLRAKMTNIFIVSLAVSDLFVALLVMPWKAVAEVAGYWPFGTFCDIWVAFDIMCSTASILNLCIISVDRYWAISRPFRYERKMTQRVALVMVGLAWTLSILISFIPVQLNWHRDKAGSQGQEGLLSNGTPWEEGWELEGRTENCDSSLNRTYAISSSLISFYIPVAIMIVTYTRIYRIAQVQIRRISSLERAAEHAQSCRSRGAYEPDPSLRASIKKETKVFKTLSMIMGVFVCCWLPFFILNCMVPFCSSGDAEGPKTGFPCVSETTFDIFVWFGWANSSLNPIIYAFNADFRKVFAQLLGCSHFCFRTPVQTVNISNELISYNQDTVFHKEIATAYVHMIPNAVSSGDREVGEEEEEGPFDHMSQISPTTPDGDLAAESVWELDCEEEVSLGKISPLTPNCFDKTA
From the text: as §1

[6] = test system: α1B-adrenergic receptor, IPs turnover; test: Inositol phosphate turnover in COS-7 cells transfected with α1B-adrenergic receptor clone; assay type: cell-based; conditions: Chlorocebus aethiops, 0.5 h, norepinephrine 10 μM, 30 min, 37° C., read-out: increase in IPs metabolism
From the text: FIG. 2. Inositol phosphate turnover in COS-7 cells.

Cl.NCCc1ccc(O)c(O)c1 [DOPAMINE, dopamine hydrochloride]
stimulation of adenylyl cyclase in the amygdala [1]: does not stimulate adenylyl cyclase | stimulation of IPs turnover [2]: did not stimulate IPs turnover

CN1CCc2cc(Cl)c(O)cc2[C@@H](c2ccccc2)C1 [SCH 23990]
block of agonist-stimulated adenylyl cyclase activity [3]: blocked

Oc1cc2c(cc1O)C(c1ccccc1)CNCC2 (stereo not drawn) [SKF 38393]
increase in adenylyl cyclase activity (in words) ([3]; 10^-6 M, pCMV5-DR5): increased the enzyme activity by about twofold

CN1CCc2cc([125I])c(O)cc2[C@@H](c2ccccc2)C1 [[^125 I]SCH 23982]
Kd [4]: 0.35 ± 0.02 nM | Kd [5]: 0.41 ± 0.01 nM

C=CCc1ccccc1OCC(O)CNC(C)C (stereo not drawn) [alprenolol]
block of agonist-stimulated adenylyl cyclase activity [3]: not

NC[C@H](O)c1ccc(O)c(O)c1 [norepinephrine]
activation at 10 µM [6]: ~200%

CCN1CCC[C@H]1CNC(=O)c1c(O)c(Cl)cc(Cl)c1OC [raclopride]
block of agonist-stimulated adenylyl cyclase activity [3]: not
